# Columns and labels:
# Format in all cases: in vivo
# [1] = test system: Puccinia recondita f. sp. tritici; assay: Test B: wheat leaf rust, preventive spray on wheat seedlings; conditions: 50 ppm, 100 = 100% disease control, 0 = no control relative to controls
# Outline: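 Compounds in acetone/water (50/50) with 250 ppm PEG400, sprayed to run-off on wheat seedlings at stated ppm; inoculated next day with P. recondita spores. Held 24 h saturated at 20° C., then 7 days in growth chamber at 20° C.; rating 0–100 = % disease control vs controls.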
# Septoria tritici = assay: Test A: wheat leaf blotch, preventive spray on wheat seedlings; conditions: 50 ppm, 100 = 100% disease control, 0 = no control relative to controls
# Outline: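 Compounds were suspended in acetone/water (50/50) with 250 ppm PEG400 and sprayed to run-off on wheat seedlings. The next day the seedlings were inoculated with Septoria tritici spores, held 48 h at 24 °C in saturated humidity, then 17 days at 20 °C. Disease control was rated 0–100 relative to controls.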
# Botrytis cinerea = assay: Test E: tomato Botrytis, preventive spray on tomato seedlings; conditions: 50 ppm, 100 = 100% disease control, 0 = no control
# Outline: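 Tomato seedlings sprayed to run-off with compound (ppm) in acetone/water with 250 ppm PEG400, then inoculated next day with B. cinerea spores. Held 48 h at 20 °C in saturated atmosphere, then 3 days at 24 °C. Visual rating 0–100% disease control relative to untreated controls.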
# Alternaria solani = assay: Test F: tomato early blight, preventive spray on tomato seedlings; conditions: 50 ppm, 100 = 100% disease control, 0 = no control
# Outline: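 Compounds in acetone/water (50/50) with 250 ppm PEG400, dosed in ppm, sprayed to run-off on tomato seedlings; next day inoculated with A. solani spores. Held 48 h saturated at 27° C, then 3 days at 20° C; visual rating 0–100% disease control relative to controls.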
# [2] = test system: Blumeria graminis f. sp. tritici; assay: Test C: wheat powdery mildew, preventive spray on wheat seedlings; conditions: 50 ppm, rated after 8 days, 100 = 100% disease control, 0 = no control
# Outline: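 Compound dissolved in acetone (3% of final volume), then suspended in 50/50 acetone/water with 250 ppm PEG400 and sprayed to run-off on wheat seedlings. Inoculated next day with B. graminis f. sp. tritici spore dust, kept 8 days at 20° C; visual rating, 100 = full control, 0 = none, relative to controls.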
# Phakopsora pachyrhizi = assay: Test D: Asian soybean rust, preventive spray on soybean seedlings; conditions: 50 ppm, 100 = 100% disease control, 0 = no control
# Outline: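 Soybean seedlings sprayed to run-off with compound suspension (ppm, in 50/50 acetone/water with 250 ppm PEG400), inoculated next day with P. pachyrhizi spores, held 24 h saturated at 22°C then 8 days at 22°C. Visual rating 0-100% disease control relative to controls.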
Compound,Test B disease control rating (wheat leaf rust) [1],Test A disease control rating (wheat leaf blotch) (Septoria tritici),Test E disease control rating (tomato Botrytis) (Botrytis cinerea),Test F disease control rating (tomato early blight) (Alternaria solani),Test C disease control rating (wheat powdery mildew) [2],Test D disease control rating (Asian soybean rust) (Phakopsora pachyrhizi),pest or weed control at 50 ppm ([1]; read-out: Test B disease control rating (wheat leaf rust)),"pest or weed control at 50 ppm (Septoria tritici; Zymoseptoria tritici, read-out: Test A disease control rating (wheat leaf blotch))","pest or weed control at 50 ppm (Botrytis cinerea; Botrytis cinerea, read-out: Test E disease control rating (tomato Botrytis))","pest or weed control at 50 ppm (Alternaria solani; Alternaria solani, read-out: Test F disease control rating (tomato early blight))","pest or weed control at 50 ppm ([2]; Blumeria graminis, 192 h, read-out: Test C disease control rating (wheat powdery mildew))","pest or weed control at 50 ppm (Phakopsora pachyrhizi; Phakopsora pachyrhizi, read-out: Test D disease control rating (Asian soybean rust))"
Cc1cccc([N+](=O)[O-])c1Nc1c(-c2c(F)cc(F)cc2Br)c(C)nn1C [Compound 169],100%,100%,98%,0%,100%,0%,–,–,–,–,–,–
CCc1nn(C)c(Nc2c(F)cccc2[N+](=O)[O-])c1-c1c(F)cc(Cl)cc1F [Compound 170],99%,100%,100%,99%,99%,0%,–,–,–,–,–,–
CCc1nn(C)c(Nc2c(F)cc(Br)cc2[N+](=O)[O-])c1-c1ccc(F)cc1F [Compound 171],91%,100%,97%,88%,99%,0%,–,–,–,–,–,–
Cc1nn(C)c(N(C)c2c(F)cccc2[N+](=O)[O-])c1-c1ccc(F)cc1Cl [Compound 172],–,–,–,–,–,–,100%,100%,99%,40%,100%,0%
CCc1nn(C)c(Nc2ccc(OC)cc2[N+](=O)[O-])c1-c1ccc(F)cc1Cl [Compound 173],100%,100%,98%,93%,98%,0%,–,–,–,–,–,–
CCc1nn(C)c(Nc2ccc(C)cc2[N+](=O)[O-])c1-c1ccc(F)cc1Cl [Compound 174],95%,100%,99%,39%,92%,0%,–,–,–,–,–,–
CCc1nn(C)c(Nc2ccc(C)cc2[N+](=O)[O-])c1-c1ccc(F)cc1F [Compound 175],86%,100%,88%,0%,79%,0%,–,–,–,–,–,–
Cc1nn(C)c(Nc2c(Cl)cc(F)cc2[N+](=O)[O-])c1-c1ccc(Cl)cc1F [Compound 176],97%,100%,9%,0%,0%,0%,–,–,–,–,–,–
Cc1cccc([N+](=O)[O-])c1Nc1c(-c2ccc(F)cc2F)c(C)nn1C [Compound 177],97%,100%,100%,9%,50%,0%,–,–,–,–,–,–
Cc1cc(F)c(Nc2c(-c3ccc(F)cc3F)c(C)nn2C)c([N+](=O)[O-])c1 [Compound 178],100%,100%,100%,100%,99%,97%,–,–,–,–,–,–
COc1ccc(Nc2c(-c3ccc(C#N)cc3F)c(C)nn2C)c([N+](=O)[O-])c1 [Compound 179],96%,100%,99%,85%,93%,0%,–,–,–,–,–,–
COc1ccc(Nc2c(-c3ccc(C#N)cc3Br)c(C)nn2C)c([N+](=O)[O-])c1 [Compound 180],98%,100%,99%,98%,79%,0%,–,–,–,–,–,–
Cc1cc(Cl)c(Nc2c(-c3ccc(F)cc3Br)c(C)nn2C)c([N+](=O)[O-])c1 [Compound 181],100%,100%,99%,99%,99%,78%,–,–,–,–,–,–
COc1ccc(-c2c(C)nn(C)c2Nc2c(F)cc(Br)cc2[N+](=O)[O-])c(Cl)c1 [Compound 182],99%,100%,100%,99%,76%,0%,–,–,–,–,–,–
COc1ccc(-c2c(C)nn(C)c2Nc2c(C)cccc2[N+](=O)[O-])c(Cl)c1 [Compound 183],99%,100%,100%,58%,78%,0%,–,–,–,–,–,–
COc1ccc(-c2c(C)nn(C)c2Nc2c(Cl)cccc2[N+](=O)[O-])c(Cl)c1 [Compound 184],100%,100%,100%,26%,21%,0%,–,–,–,–,–,–
